# Laboratory results taken from ChEMBL document CHEMBL5042474, “Structure-Guided Discovery of Potent and Selective DYRK1A Inhibitors” (J Med Chem, 2021).
# Tests used:
# A2780 [1] = assay: Antitumor activity against human A2780 cells xenografted in Balb/c mouse assessed as inhibition of tumor growth at 37.5 mg/kg, po bid for 14 days relative to control; format: functional; details: 336 h, time 14 day, read-out: TGI
# [2] = target: T1, Dual specificity tyrosine-phosphorylation-regulated kinase 2 (Homo sapiens, UniProt Q92630); assay: Inhibition of DYRK2 (unknown origin) using Ulight-MBP as substrate and ATP as co-substrate incubated for 40 mins and measured after 1 hr by TR-FRET assay
# T1 sequence (Q92630 whole entry): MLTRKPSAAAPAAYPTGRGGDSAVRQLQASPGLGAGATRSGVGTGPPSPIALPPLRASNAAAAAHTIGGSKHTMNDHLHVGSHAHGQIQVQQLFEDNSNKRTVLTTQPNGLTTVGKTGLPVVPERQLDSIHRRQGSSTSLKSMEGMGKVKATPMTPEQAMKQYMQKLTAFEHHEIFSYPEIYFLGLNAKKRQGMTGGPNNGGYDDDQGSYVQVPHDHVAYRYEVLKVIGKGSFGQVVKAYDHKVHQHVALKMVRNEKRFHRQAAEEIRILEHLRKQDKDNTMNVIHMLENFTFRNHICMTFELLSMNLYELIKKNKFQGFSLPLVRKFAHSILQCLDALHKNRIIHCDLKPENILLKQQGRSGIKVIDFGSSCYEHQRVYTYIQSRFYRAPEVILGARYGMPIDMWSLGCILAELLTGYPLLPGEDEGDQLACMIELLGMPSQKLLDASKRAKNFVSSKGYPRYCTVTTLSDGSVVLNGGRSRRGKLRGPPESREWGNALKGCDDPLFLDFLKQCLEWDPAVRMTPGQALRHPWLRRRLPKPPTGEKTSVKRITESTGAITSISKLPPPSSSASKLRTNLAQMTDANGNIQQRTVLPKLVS
# SK-N-MC [3] = assay: cells; details: Homo sapiens
# A2780 [4] = assay: Antitumor activity against human A2780 cells xenografted in BALB/c nu/nu mouse assessed as reduction in DYRK1A autophosphorylation of S520 residue at 18.75 mg/kg, po measured after 6 hrs by western blotting analysis relative to control; format: functional; design: scale not given: the % may be the effect or the level left
# A2780 [5] = assay: cells; details: Homo sapiens, A2780, 120 h
# RS4-11 [6] = assay: Antitumor activity against human RS4-11 cells xenografted in BALB/c nu/nu mouse assessed as reduction in DYRK1A autophosphorylation of S520 residue at 3.125 mg/kg, po measured after 2 hrs by western blotting analysis relative to control; format: functional; design: scale not given: the % may be the effect or the level left
# A2780 [7] = assay: Antitumour activity against human A2780 cells xenografted in Balb/c mouse assessed as tumor volume T/C at 18.75 mg/kg, po bid for 14 days relative to control; details: time 14 day
# [8] = Toxicity in Balb/c nude mouse xenografted with human A2780 cells assessed as decrease in body weight at 9.5 mg/kg, po bid for 14 days relative to control; format: organism-based; design: scale not given: the % may be the effect or the level left; details: in vivo, 336 h, time 14 day
# [9] = Toxicity in Balb/c nude mouse xenografted with human A2780 cells assessed as decrease in body weight at 4.75 mg/kg, po bid for 14 days relative to control; format: organism-based; design: scale not given: the % may be the effect or the level left; details: in vivo, 336 h, time 14 day
# [10] = target: Dual specificity protein kinase CLK1 (Homo sapiens) (UniProt P49759); assay: Residual activity of CLK1 (unknown origin) at 10 nM using Ulight-MBP as substrate and ATP as co-substrate incubated for 40 mins and measured after 1 hr by TR-FRET assay relative to control; details: time 100.0 min
# SK-N-MC [11] = assay: cells; details: Homo sapiens, 120 h
# [12] = target: Dual specificity tyrosine-phosphorylation-regulated kinase 1A (Homo sapiens, UniProt Q13627); assay: Residual activity of DYRK1A (unknown origin) at 10 nM using Ulight-MBP as substrate and ATP as co-substrate incubated for 40 mins and measured after 1 hr by TR-FRET assay relative to control; details: time 100.0 min
# hERG (KCNH2) = hERG (KCNH2) (Homo sapiens, UniProt Q12809); assay: Inhibition of hERG at 10 uM by patch clamp method relative to control; format: toxicity
# RS4-11 [13] = assay: Antitumor activity against human RS4-11 cells xenografted in BALB/c nu/nu mouse assessed as reduction in DYRK1A autophosphorylation of S520 residue at 3.125 mg/kg, po measured after 6 hrs by western blotting analysis relative to control; format: functional; design: scale not given: the % may be the effect or the level left
# A2780 [14] = assay: Antitumor activity against human A2780 cells xenografted in BALB/c […] mouse assessed as reduction in DYRK1A autophosphorylation of S520 residue at 75 mg/kg, po measured after 6 hrs by western blotting analysis relative to control; format: functional; design: scale not given: the % may be the effect or the level left
# C-33-A = assay: cells; details: Homo sapiens
# A2780 [15] = assay: Antitumor activity against human A2780 cells xenografted in Balb/c mouse assessed as inhibition of tumor growth at 4.75 mg/kg, po bid for 14 days relative to control; format: functional; details: 336 h, time 14 day, read-out: TGI
# A2780 [16] = assay: cells; details: Homo sapiens
# [17] = Oral bioavailability in BALB/c nu/nu mouse at 3 mg/kg; format: ADME, organism-based; details: in vivo
# RS4-11 [18] = assay: Antitumor activity against human RS4-11 cells xenografted in BALB/c nu/nu mouse reduction in DYRK1A autophosphorylation of S520 residue at 6.25 mg/kg, po measured after 6 hrs by western blotting analysis relative to control; format: functional; design: scale not given: the % may be the effect or the level left
# [19] = target: T2, Dual specificity tyrosine-phosphorylation-regulated kinase 2 (Homo sapiens) (UniProt Q92630); assay: Residual activity of DYRK2 (unknown origin) at 10 nM using Ulight-MBP as substrate and ATP as co-substrate incubated for 40 mins and measured after 1 hr by TR-FRET assay relative to control; details: time 100.0 min
# T2 sequence (whole entry): T1 sequence (Q92630 whole entry)
# [20] = target: Dual specificity protein kinase CLK4 (Homo sapiens) (UniProt Q9HAZ1); assay: Residual activity of CLK4 (unknown origin) at 10 nM using Ulight-MBP as substrate and ATP as co-substrate incubated for 40 mins and measured after 1 hr by TR-FRET assay relative to control; details: time 100.0 min
# A2780 [21] = assay: Antitumor activity against human A2780 cells xenografted in BALB/c nu/nu mouse assessed as reduction in DYRK1A autophosphorylation of S520 residue at 18.75 mg/kg, po measured after 2 hrs by western blotting analysis relative to control; format: functional; design: scale not given: the % may be the effect or the level left
# A2780 [22] = assay: Antitumor activity against human A2780 cells xenografted in BALB/c nu/nu mouse assessed as reduction in DYRK1A autophosphorylation of S520 residue at 4.687 mg/kg, po measured after 2 hrs by western blotting analysis relative to control; format: functional; design: scale not given: the % may be the effect or the level left
# [23] = target: Casein kinase I isoform gamma-1 (Homo sapiens) (UniProt Q9HCP0); assay: Residual activity of CSNK1G1 (unknown origin) at 10 nM using Ulight-MBP as substrate and ATP as co-substrate incubated for 40 mins and measured after 1 hr by TR-FRET assay relative to control; details: time 100.0 min
# Sequence of Casein kinase I isoform gamma-1 (Homo sapiens) (Q9HCP0 whole entry, looked up, canonical isoform): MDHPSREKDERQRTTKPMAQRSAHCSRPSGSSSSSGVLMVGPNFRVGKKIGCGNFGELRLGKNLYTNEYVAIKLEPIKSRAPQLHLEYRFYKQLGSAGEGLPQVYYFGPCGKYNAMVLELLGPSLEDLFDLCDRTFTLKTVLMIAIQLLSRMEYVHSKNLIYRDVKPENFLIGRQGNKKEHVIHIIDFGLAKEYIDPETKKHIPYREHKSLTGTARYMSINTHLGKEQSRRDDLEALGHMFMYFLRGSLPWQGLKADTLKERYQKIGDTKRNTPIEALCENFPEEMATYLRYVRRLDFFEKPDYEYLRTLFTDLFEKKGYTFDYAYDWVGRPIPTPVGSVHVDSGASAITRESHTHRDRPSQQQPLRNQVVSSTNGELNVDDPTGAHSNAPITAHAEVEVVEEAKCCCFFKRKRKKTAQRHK
# Sequence of Dual specificity protein kinase CLK1 (Homo sapiens) (P49759 whole entry, looked up): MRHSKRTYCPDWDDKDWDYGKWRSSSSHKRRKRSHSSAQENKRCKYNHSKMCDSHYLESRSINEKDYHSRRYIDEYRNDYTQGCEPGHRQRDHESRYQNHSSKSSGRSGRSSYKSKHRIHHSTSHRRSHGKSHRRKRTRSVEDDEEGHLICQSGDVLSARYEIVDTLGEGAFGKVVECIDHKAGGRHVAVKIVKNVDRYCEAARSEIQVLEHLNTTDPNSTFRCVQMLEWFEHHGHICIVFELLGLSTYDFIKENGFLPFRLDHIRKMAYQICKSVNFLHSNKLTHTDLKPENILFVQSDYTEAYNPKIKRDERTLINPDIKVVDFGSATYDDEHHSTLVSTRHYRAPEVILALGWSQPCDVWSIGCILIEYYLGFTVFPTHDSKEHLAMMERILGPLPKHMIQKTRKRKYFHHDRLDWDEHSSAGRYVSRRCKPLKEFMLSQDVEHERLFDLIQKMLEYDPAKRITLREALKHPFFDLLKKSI
# Sequence of hERG (KCNH2) (Q12809 whole entry): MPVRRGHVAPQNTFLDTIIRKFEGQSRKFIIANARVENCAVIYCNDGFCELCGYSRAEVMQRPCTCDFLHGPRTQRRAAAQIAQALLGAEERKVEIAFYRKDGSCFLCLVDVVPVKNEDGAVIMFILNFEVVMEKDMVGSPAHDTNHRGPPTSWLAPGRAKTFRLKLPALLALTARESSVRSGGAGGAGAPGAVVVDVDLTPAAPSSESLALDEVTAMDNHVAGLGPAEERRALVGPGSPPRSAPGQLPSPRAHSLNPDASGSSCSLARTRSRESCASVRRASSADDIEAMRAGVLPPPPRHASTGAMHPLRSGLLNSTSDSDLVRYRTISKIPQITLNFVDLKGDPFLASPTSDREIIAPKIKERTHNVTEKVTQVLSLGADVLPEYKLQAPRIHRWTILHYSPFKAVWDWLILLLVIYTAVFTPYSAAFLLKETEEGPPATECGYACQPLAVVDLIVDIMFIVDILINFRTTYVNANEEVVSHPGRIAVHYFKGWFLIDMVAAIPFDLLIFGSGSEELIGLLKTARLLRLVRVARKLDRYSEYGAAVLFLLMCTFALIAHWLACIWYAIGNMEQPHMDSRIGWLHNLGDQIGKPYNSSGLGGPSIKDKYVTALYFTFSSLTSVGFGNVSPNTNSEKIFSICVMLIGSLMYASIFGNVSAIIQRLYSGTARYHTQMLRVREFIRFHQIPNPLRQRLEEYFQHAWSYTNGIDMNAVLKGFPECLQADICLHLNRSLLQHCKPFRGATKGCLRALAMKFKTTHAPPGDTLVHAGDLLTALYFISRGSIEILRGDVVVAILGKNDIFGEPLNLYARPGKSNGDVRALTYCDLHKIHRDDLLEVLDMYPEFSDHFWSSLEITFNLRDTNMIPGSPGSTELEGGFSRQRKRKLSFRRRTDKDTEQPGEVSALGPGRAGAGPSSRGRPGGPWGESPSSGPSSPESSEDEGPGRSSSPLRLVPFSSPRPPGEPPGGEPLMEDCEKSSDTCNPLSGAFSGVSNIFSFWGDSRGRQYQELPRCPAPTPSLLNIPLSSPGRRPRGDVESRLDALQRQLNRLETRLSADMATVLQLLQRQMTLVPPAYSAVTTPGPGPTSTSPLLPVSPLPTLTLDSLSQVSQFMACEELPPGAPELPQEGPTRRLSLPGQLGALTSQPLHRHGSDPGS
# Sequence of Dual specificity protein kinase CLK4 (Homo sapiens) (Q9HAZ1 whole entry, looked up): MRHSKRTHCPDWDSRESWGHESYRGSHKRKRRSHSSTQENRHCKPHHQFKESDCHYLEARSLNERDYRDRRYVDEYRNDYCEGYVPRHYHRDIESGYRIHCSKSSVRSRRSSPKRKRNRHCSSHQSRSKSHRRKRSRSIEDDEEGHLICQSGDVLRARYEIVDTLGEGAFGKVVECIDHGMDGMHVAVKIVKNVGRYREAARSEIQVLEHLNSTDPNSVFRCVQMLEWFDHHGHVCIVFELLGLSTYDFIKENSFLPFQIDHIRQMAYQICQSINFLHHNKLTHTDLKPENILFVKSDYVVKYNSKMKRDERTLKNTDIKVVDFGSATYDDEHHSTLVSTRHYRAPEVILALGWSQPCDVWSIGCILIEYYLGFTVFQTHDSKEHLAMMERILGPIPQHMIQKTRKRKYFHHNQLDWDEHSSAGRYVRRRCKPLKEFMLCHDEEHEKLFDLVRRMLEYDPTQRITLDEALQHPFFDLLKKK
structure (smiles),measurement,setting,value
Cc1nc2ccc(-c3cc(N)nc(N)c3)nc2n1C1CC1,inhibition in vivo at 37.5 mg/kg,A2780 [1],63%
same,IC50,[2],3 nM
same,IC50,SK-N-MC [3],77 nM
same,Activity,A2780 [4],80%
same,IC50,A2780 [5],1540 nM
same,Activity,RS4-11 [6],51%
same,T/C,A2780 [7],63%
same,Activity,[8],8.7%
same,Activity,[9],1.5%
same,residual activity,[10],48%
same,IC50,SK-N-MC [11],958 nM
same,residual activity,[12],9.2%
same,inhibition at 10 µM,hERG (KCNH2),52%
same,Activity,RS4-11 [13],38%
same,Activity,A2780 [14],92%
same,IC50,C-33-A,157 nM
same,inhibition in vivo at 4.75 mg/kg,A2780 [15],28%
same,IC50,A2780 [16],126 nM
same,bioavailability,[17],39%
same,Activity,RS4-11 [18],25%
same,residual activity,[19],1.6%
same,residual activity,[20],52%
same,Activity,A2780 [21],82%
same,Activity,A2780 [22],60%
same,residual activity,[23],69%
